Earlier results, collected in patent US20210267985A1, “COMPOSITIONS AND METHODS FOR INDUCING ENHANCED BRAIN FUNCTION” (priority 2020, published 2021).

Details: in vivo

Cn1c(=O)c2c(ncn2C)n(C)c1=O [caffeine]
half-life: 4 to 6 h
